Measured values as given in patent publication US11254668B2, “Pyrazolo[1,5-A]pyrazin-4-yl and related derivatives” (Pfizer Inc., priority 2017, dated 2022).

Experiments:
Type in all cases: biochemical
[1] = biological target: JAK2 (Homo sapiens (Human), UniProt O60674); test: JAK Caliper Enzyme Assay at 1 mM ATP, JAK2
Procedure, shortened: (§1)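 Mobility-shift microfluidic read-out: substrate and phosphopeptide peaks separated, % conversion = product/(product+substrate). Reaction used recombinant human kinase domain, synthetic peptide, 1 mM ATP, RT incubation to 20–30% turnover, quenched with EDTA. Percent effect versus DMSO and positive controls, plotted against concentration.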

[2] = biological target: JAK1 (Homo sapiens (Human), UniProt P23458); test: JAK Caliper Enzyme Assay at 1 mM ATP, JAK1
Procedure, shortened: (§2)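 IC50 (nM) derived from percent conversion of fluorescently labelled peptide, measured by Caliper LabChip mobility-shift separation after EDTA stop. Each JAK family kinase domain (human, recombinant) run at 1 mM ATP and room temperature, conditions set to 20-30% product; DMSO wells define uninhibited baseline.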

[3] = biological target: TYK2 (Homo sapiens (Human), UniProt P29597); test: JAK Caliper Enzyme Assay at 1 mM ATP, TYK2
Procedure, shortened: as §1

[4] = biological target: JAK3 (Homo sapiens (Human), UniProt P52333); test: JAK Caliper Enzyme Assay at 1 mM ATP, JAK3
Procedure, shortened: as §2

JAK2, sequence (O60674 849-1124): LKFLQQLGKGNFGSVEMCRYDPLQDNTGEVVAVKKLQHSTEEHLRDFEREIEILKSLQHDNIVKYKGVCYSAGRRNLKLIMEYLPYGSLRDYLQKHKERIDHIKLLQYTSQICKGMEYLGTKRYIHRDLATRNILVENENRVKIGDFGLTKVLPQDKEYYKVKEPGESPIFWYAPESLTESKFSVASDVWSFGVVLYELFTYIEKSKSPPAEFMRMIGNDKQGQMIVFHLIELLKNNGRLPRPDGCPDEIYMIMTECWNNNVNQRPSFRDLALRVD
JAK1, sequence (P23458 875-1153): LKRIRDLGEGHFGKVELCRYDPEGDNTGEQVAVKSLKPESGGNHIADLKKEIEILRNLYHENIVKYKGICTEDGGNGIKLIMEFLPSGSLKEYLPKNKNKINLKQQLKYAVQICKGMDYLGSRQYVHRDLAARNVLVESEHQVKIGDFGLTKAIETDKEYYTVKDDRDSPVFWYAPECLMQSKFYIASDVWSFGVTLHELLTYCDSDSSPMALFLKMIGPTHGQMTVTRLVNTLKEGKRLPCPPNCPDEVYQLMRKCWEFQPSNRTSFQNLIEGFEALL
JAK3, sequence (P52333 822-1111): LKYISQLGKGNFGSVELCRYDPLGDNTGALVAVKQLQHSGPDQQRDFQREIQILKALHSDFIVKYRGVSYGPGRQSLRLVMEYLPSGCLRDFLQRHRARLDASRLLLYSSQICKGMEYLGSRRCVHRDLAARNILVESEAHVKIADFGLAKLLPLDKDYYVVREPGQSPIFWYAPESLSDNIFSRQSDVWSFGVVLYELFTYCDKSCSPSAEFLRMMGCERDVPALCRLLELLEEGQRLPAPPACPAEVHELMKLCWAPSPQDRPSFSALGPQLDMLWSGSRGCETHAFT
TYK2, sequence (P29597 897-1176): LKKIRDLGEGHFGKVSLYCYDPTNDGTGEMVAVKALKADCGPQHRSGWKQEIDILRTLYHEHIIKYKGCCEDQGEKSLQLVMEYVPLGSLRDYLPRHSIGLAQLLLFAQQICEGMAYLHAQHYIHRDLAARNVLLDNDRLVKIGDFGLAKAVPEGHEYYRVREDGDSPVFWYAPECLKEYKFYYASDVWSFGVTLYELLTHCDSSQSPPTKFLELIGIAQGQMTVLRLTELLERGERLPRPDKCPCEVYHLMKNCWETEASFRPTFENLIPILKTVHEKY

Row | SMILES | IC50 [1] | IC50 [2] | IC50 [3] | IC50 [4]
1 | CS(=O)(=O)N1CC(CC#N)(n2ccc(-c3nc(-c4ccn5ccnc5c4)cc4ncccc34)n2)C1 [Example 163, [3-{3-[7-(imidazo[1,2-a]pyridin-7-yl)-1,6-naphthyridin-5-yl]-1H-pyrazol-1-yl}-1-(methylsulfonyl)azetidin-3-yl]acetonitrile] | 294 nM | 4060 nM | 42 nM | > 10000 nM
2 | Cn1cnc2cc(-c3cc4ncccc4c(-c4ccn(C5(CC#N)CN(S(C)(=O)=O)C5)n4)n3)cnc21 [Example 164, [3-{3-[7-(3-methyl-3H-imidazo[4,5-b]pyridin-6-yl)-1,6-naphthyridin-5-yl]-1H-pyrazol-1-yl}-1-(methylsulfonyl)azetidin-3-yl]acetonitrile] | 4720 nM | 6570 nM | 235 nM | > 10000 nM
3 | CS(=O)(=O)N1CC(CC#N)(n2ccc(-c3nc(-c4cnc5nccn5c4)cc4ncccc34)n2)C1 [Example 165, [3-{3-[7-(imidazo[1,2-a]pyrimidin-6-yl)-1,6-naphthyridin-5-yl]-1H-pyrazol-1-yl}-1-(methylsulfonyl)azetidin-3-yl]acetonitrile] | 9440 nM | > 10000 nM | 1390 nM | > 10000 nM
4 | CS(=O)(=O)N1CC(CC#N)(n2ccc(-c3nc(-c4cnc5cn[nH]c5c4)cc4ncccc34)n2)C1 [Example 166, [1-(methylsulfonyl)-3-{3-[7-(1H-pyrazolo[4,3-b]pyridin-6-yl)-1,6-naphthyridin-5-yl]-1H-pyrazol-1-yl}azetidin-3-yl]acetonitrile] | 728 nM | 7380 nM | 44 nM | > 10000 nM
5 | N#CCC1(n2ccc(-c3nc(-c4ccc5nncn5c4)cc4ncccc34)n2)CN(CC(F)(F)F)C1 [Example 167, [3-{3-[7-([1,2,4]triazolo[4,3-a]pyridin-6-yl)-1,6-naphthyridin-5-yl]-1H-pyrazol-1-yl}-1-(2,2,2-trifluoroethyl)azetidin-3-yl]acetonitrile] | 1290 nM | 2730 nM | 129 nM | > 10000 nM
6 | CS(=O)(=O)N1CC(CC#N)(n2ccc(-c3nc(-c4cnn5cccnc45)cc4ncccc34)n2)C1 [Example 168, [1-(methylsulfonyl)-3-{3-[7-(pyrazolo[1,5-a]pyrimidin-3-yl)-1,6-naphthyridin-5-yl]-1H-pyrazol-1-yl}azetidin-3-yl]acetonitrile] | 6590 nM | 8820 nM | 592 nM | > 10000 nM
7 | CS(=O)(=O)N1CC(CC#N)(n2ccc(-c3nc(-c4cnc5[nH]c(=O)[nH]c5c4)cc4ncccc34)n2)C1 [Example 169, [1-(methylsulfonyl)-3-{3-[7-(2-oxo-2,3-dihydro-1H-imidazo[4,5-b]pyridin-6-yl)-1,6-naphthyridin-5-yl]-1H-pyrazol-1-yl}azetidin-3-yl]acetonitrile] | 241 nM | > 10000 nM | 22 nM | > 10000 nM
8 | CS(=O)(=O)N1CC(CC#N)(n2ccc(-c3nc(-c4cnc5c(c4)NCCN5)cc4ncccc34)n2)C1 [Example 170, [1-(methylsulfonyl)-3-{3-[7-(1,2,3,4-tetrahydropyrido[2,3-b]pyrazin-7-yl)-1,6-naphthyridin-5-yl]-1H-pyrazol-1-yl}azetidin-3-yl]acetonitrile] | 399 nM | 1430 nM | 56 nM | > 10000 nM
9 | N#CCC1(n2ccc(-c3nc(-c4ccncc4)cc4ncccc34)n2)CN(CC(F)(F)F)C1 [Example 172, [3-{3-[7-(pyridin-4-yl)-1,6-naphthyridin-5-yl]-1H-pyrazol-1-yl}-1-(2,2,2-trifluoroethyl)azetidin-3-yl]acetonitrile] | 388 nM | 608 nM | 27 nM | > 10000 nM
